Results from PMC3617406 (Molecular pharmaceutics, 2013).
Counter-ions that a name gives are not always drawn.

Columns and labels:
[1] = molecular target: T1, human NTCP (Homo sapiens, UniProt Q14973); format: cell-based; conditions: for potency estimated from few doses: read-out: Estimated Ki for NTCP; for NTCP inhibitor or non-inhibitor: inhibitor = Ki less than 300 μM
T1 sequence (Q14973 1-349): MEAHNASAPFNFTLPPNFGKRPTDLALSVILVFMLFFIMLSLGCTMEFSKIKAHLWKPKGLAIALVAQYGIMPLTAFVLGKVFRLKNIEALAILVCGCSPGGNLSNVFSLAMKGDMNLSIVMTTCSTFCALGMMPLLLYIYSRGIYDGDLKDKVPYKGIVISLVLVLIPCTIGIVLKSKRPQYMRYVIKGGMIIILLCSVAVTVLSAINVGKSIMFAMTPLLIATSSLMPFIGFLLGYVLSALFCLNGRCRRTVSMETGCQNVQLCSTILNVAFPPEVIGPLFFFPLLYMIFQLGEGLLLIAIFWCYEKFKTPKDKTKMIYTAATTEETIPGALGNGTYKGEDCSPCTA

[2] = molecular target: T2, human ASBT (Homo sapiens, UniProt Q12908); format: cell-based; conditions: for potency estimated from few doses: read-out: Estimated Ki for ASBT; for fold more potent ASBT inhibition than NTCP inhibition: Ki values of Table 4 and 5; for taurocholate uptake into ASBT-MDCK cells, percent of control: single drug concentration, same as in NTCP screening (typically 100 μM); for ASBT inhibitor or non-inhibitor: inhibitor = Ki below 300 μM
T2 sequence (Q12908 1-348): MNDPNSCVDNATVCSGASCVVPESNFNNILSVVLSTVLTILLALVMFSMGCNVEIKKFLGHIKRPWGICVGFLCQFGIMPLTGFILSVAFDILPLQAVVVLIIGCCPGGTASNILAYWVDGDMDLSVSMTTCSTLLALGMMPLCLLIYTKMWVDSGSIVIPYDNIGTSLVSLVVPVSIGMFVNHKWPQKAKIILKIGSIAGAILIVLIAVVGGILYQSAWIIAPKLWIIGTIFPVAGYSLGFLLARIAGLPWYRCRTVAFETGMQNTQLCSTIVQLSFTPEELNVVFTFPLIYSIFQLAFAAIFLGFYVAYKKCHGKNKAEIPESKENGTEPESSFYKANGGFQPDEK

Row | SMILES | potency estimated from few doses [1] [µM] | potency estimated from few doses [2] [µM] | NTCP inhibitor or non-inhibitor [1] | fold more potent ASBT inhibition than NTCP inhibition [2] [fold] | taurocholate uptake into ASBT-MDCK cells, percent of control [2] | ASBT inhibitor or non-inhibitor [2]
1 | Nc1nc(NC2CC2)c2ncn([C@H]3C=C[C@@H](CO)C3)c2n1 [Abacavir] | 1290 | 1460 | – | – | – | –
2 | C[C@H]1O[C@H](O[C@H]2[C@H](O)[C@@H](O)[C@@H](O[C@H]3[C@H](O)[C@@H](O)C(O)O[C@@H]3CO)O[C@@H]2CO)[C@H](O)[C@@H](O)[C@@H]1N[C@H]1C=C(CO)[C@@H](O)[C@H](O)[C@H]1O (stereo partly drawn) [Acarbose] | > 100 | 318 ± 169 | – | – | – | –
3 | C[C@H]1[C@H](NC(=O)/C(=N\OC(C)(C)C(=O)O)c2csc(N)n2)C(=O)N1S(=O)(=O)O [Aztreonam] | > 100 | 1420 | – | – | – | –
4 | NS(=O)(=O)c1cc2c(cc1C(F)(F)F)NC(Cc1ccccc1)NS2(=O)=O (stereo not drawn) [Bendroflumethiazide] | – | 168 ± 10 | – | – | – | –
5 | CC(C)C[C@H](NC(=O)[C@H](Cc1ccccc1)NC(=O)c1cnccn1)B(O)O [Bortezomib] | > 100 | 811 ± 243 | – | – | – | –
6 | N[C@@H](C(=O)N[C@@H]1C(=O)N2C(C(=O)O)=C(Cl)CS[C@H]12)c1ccccc1 [Cefaclor] | > 100 | 1890 ± 257 | – | – | – | –
7 | COCc1c(C(C)C)nc(C(C)C)c(/C=C/[C@@H](O)C[C@@H](O)CC(=O)O)c1-c1ccc(F)cc1 [Cerivastatin] | – | – | NTCP inhibitors | – | – | –
8 | CCN(CC)CCCC(C)Nc1ccnc2cc(Cl)ccc12 (stereo not drawn) [Chloroquine] | 336 ± 101 | – | – | – | – | –
9 | CN(C)CCCN1c2ccccc2Sc2ccc(Cl)cc21 [Chlorpromazine] | 767 ± 268 | 50.7 ± 5.9 | – | ≥ 10 | below 50% | –
10 | CN/C(=N/CCSCc1nc[nH]c1C)NC#N [Cimetidine] | 332 ± 73 | 208 ± 51 | – | – | – | –
11 | COc1cccc2c1C(=O)c1c(O)c3c(c(O)c1C2=O)C[C@@](O)(C(C)=O)C[C@@H]3O[C@H]1C[C@H](N)[C@H](O)[C@H](C)O1 [Daunorubicin] | > 100 | > 100 | – | – | – | –
12 | CCCCOc1cc(C(=O)NCCN(CC)CC)c2ccccc2n1 [Dibucaine] | > 100 | 85.8 ± 2.3 | – | ≥ 10 | – | –
13 | Clc1ccc(COC(Cn2ccnc2)c2ccc(Cl)cc2Cl)cc1 (stereo not drawn) [Econazole] | 416 ± 624 | 18.5 ± 3.9 | – | ≥ 10 | below 50% | ASBT inhibitors
14 | CN1CCC[C@@H]1Cc1c[nH]c2ccc(CCS(=O)(=O)c3ccccc3)cc12 [Eletriptan] | > 100 | 137 ± 48 | – | ≥ 10 | – | –
15 | CCOC(=O)[C@H](CCc1ccccc1)N[C@@H](C)C(=O)N1CCC[C@H]1C(=O)O [Enalapril] | > 100 | 162 ± 82 | – | ≥ 10 | – | –
16 | CCCCc1ncc(/C=C(\Cc2cccs2)C(=O)O)n1Cc1ccc(C(=O)O)cc1 [Eprosartan] | > 100 | 246 ± 119 | did not inhibit NTCP | – | – | –
17 | CCC1(C)CC(=O)NC1=O (stereo not drawn) [Ethosuximide] | 513 ± 169 | 313 ± 53 | – | – | – | –
18 | O=C1[C@H](CC[C@H](O)c2ccc(F)cc2)[C@@H](c2ccc(O)cc2)N1c1ccc(F)cc1 [Ezetimibe] | 53.8 ± 3.3 | 4.61 ± 0.88 | NTCP inhibitors | – | below 50% | –
19 | COc1ccc(CC(C)NCC(O)c2ccc(O)c(NC=O)c2)cc1 (stereo not drawn) [Formoterol] | > 100 | 175 ± 96 | – | – | – | –

Results, then the compound that gave them:

Row | potency estimated from few doses [1] [µM] | potency estimated from few doses [2] [µM] | NTCP inhibitor or non-inhibitor [1] | fold more potent ASBT inhibition than NTCP inhibition [2] [fold] | taurocholate uptake into ASBT-MDCK cells, percent of control [2] | ASBT inhibitor or non-inhibitor [2] | SMILES
20 | 387 ± 130 | 2280 ± 978 | – | – | – | – | NC(N)=Nc1nc(CSCCC(N)=NS(N)(=O)=O)cs1 [Famotidine]
21 | 304 ± 132 | > 100 | – | – | – | – | NS(=O)(=O)c1cc(C(=O)O)c(NCc2ccco2)cc1Cl [Furosemide]
22 | 673 ± 130 | 177 ± 32 | – | – | – | – | Cc1ccc(NC(=O)c2ccc(CN3CCN(C)CC3)cc2)cc1Nc1nccc(-c2cccnc2)n1 [Imatinib]
23 | – | 131 ± 34 | inhibited NTCP | – | – | – | CCCCC1=NC2(CCCC2)C(=O)N1Cc1ccc(-c2ccccc2-c2nnn[nH]2)cc1 [Irbesartan]
24 | 99.5 ± 14 | 17.9 ± 2.3 | NTCP inhibitors | – | below 50% | – | COC(=O)C1=C(C)NC(C)=C(C(=O)OC(C)C)C1c1cccc2nonc12 (stereo not drawn) [Isradipine]
25 | 77.1 ± 38 | 57 ± 25 | NTCP inhibitors | – | – | ASBT inhibitors | CCC(C)n1ncn(-c2ccc(N3CCN(c4ccc(OCC5COC(Cn6cncn6)(c6ccc(Cl)cc6Cl)O5)cc4)CC3)cc2)c1=O (stereo not drawn) [Itraconazole]
26 | – | 139 ± 58 | – | – | – | – | CCCCc1nc(Cl)c(CO)n1Cc1ccc(-c2ccccc2-c2nn[nH]n2)cc1 [Losartan]
27 | 202 ± 32 | 21.7 ± 2.1 | NTCP inhibitors | – | below 50% | – | CC[C@H](C)C(=O)O[C@H]1C[C@@H](C)C=C2C=C[C@H](C)[C@H](CC[C@@H]3C[C@@H](O)CC(=O)O3)[C@H]21 [Lovastatin]
28 | 369 ± 83 | 223 ± 90 | – | – | – | ASBT inhibitors | Cc1ncc([N+](=O)[O-])n1CCO [Metronidazole]
29 | 601 ± 300 | 61.3 ± 16 | – | – | – | ASBT inhibitors | Clc1ccc(COC(Cn2ccnc2)c2ccc(Cl)cc2Cl)c(Cl)c1 (stereo not drawn) [Miconazole]
30 | 2010 ± 5840 | > 100 | – | – | – | – | CCOc1ccc2ccccc2c1C(=O)N[C@@H]1C(=O)N2[C@@H]1SC(C)(C)[C@@H]2C(=O)O [Nafcillin]
31 | 217 ± 69 | 136 ± 13 | inhibited NTCP | – | – | – | COc1ccc2cc([C@H](C)C(=O)O)ccc2c1 [Naproxen]
32 | 309 ± 144 | 142 ± 3 | – | – | – | – | COC(=O)C1=C(C)NC(C)=C(C(=O)OCCN(C)Cc2ccccc2)C1c1cccc([N+](=O)[O-])c1 (stereo not drawn) [Nicardipine]
33 | – | 30.9 ± 1.7 | – | – | below 50% | – | COCCOC(=O)C1=C(C)NC(C)=C(C(=O)OC(C)C)C1c1cccc([N+](=O)[O-])c1 (stereo not drawn) [Nimodipine]
34 | – | 31.7 ± 6.5 | – | – | – | – | CCOC(=O)C1=C(C)NC(C)=C(C(=O)OC)C1c1cccc([N+](=O)[O-])c1 (stereo not drawn) [Nitrendipine]
35 | – | 1050 ± 422 | – | – | – | inhibited NTCP but not ASBT | CCCc1nc(C(C)(C)O)c(C(=O)O)n1Cc1ccc(-c2ccccc2-c2nnn[nH]2)cc1 [Olmesartan]
36 | > 100 | 103 ± 23 | – | ≥ 10 | – | – | COc1ccc2[nH]c([S+]([O-])Cc3ncc(C)c(OC)c3C)nc2c1 (stereo not drawn) [Omeprazole]
37 | > 100 | 1020 ± 49 | – | – | – | – | CCOC(=O)C1=C[C@@H](OC(CC)CC)[C@H](NC(C)=O)[C@@H](N)C1 [Oseltamivir]
38 | 335 ± 177 | 89.2 ± 32 | – | – | – | – | C[C@]12C=CC(=O)C=C1CC[C@@H]1[C@@H]2[C@@H](O)C[C@@]2(C)[C@H]1CC[C@]2(O)C(=O)CO [Prednisolone]
39 | 384 ± 185 | > 100 | – | – | – | – | CCN(CC)CCNC(=O)c1ccc(N)cc1 [Procainamide HCl]
40 | 402 ± 116 | 50.3 ± 18 | – | – | – | – | CCCNCC(O)COc1ccccc1C(=O)CCc1ccccc1 (stereo not drawn) [Propafenone HCl]
41 | 1490 ± 581 | 239 ± 117 | – | – | – | – | C=C[C@H]1C[N@@]2CC[C@H]1C[C@H]2[C@H](O)c1ccnc2ccc(OC)cc12 [Quinine]
42 | – | 65.8 ± 9.2 | – | – | – | – | O=C(c1ccc(OCCN2CCCCC2)cc1)c1c(-c2ccc(O)cc2)sc2cc(O)ccc12 [Raloxifene HCl]
43 | – | 47.3 ± 9.7 | – | – | below 50% | – | CC(C)c1nc(CN(C)C(=O)N[C@H](C(=O)N[C@@H](Cc2ccccc2)C[C@H](O)[C@H](Cc2ccccc2)NC(=O)OCc2cncs2)C(C)C)cs1 [Ritonavir]
44 | – | 164 ± 34 | – | – | – | – | CC(C)c1nc(N(C)S(C)(=O)=O)nc(-c2ccc(F)cc2)c1/C=C/[C@@H](O)C[C@@H](O)CC(=O)O [Rosuvastatin]
45 | – | 11.9 ± 2.7 | – | – | below 50% | ASBT inhibitors | Clc1ccc(C(Cn2ccnc2)OCc2ccsc2Cl)c(Cl)c1 (stereo not drawn) [Tioconazole]
